Reference: patent US20210039089A1, “DEVICES, KITS, AND METHODS FOR LABEL-FREE SEPARATION AND SUBTYPING OF RARE CELLS” (University of Georgia Research Foundation, Inc., priority 2019, published 2021)
“Also recorded” adds a separate entry of the source.

Assays:
[1] = test system: WBCs; test: MChip purification assay, cells loaded in middle channel, WBC readout; format: cell-based, human
Description: (§1) WBCs and MDA-MB-231 cancer cells were mixed at a 1:1 ratio in FBS-free DMEM medium and loaded to the top edge of the middle/main channel. The positions of these cells were determined by an optimized flow rate and open/close of channel inlets/outlets. Briefly, the microfluidic device was filled with cell culture medium and incubator at 37° C. for one hour. Sealed all the inlet/outlets except cell loading inlet (middle/main channel) and channel #1 outlet (top). 50 μL cell mixture was loaded into cell loading inlet and the cell alignment was achieved using a syringe pump (5 μL/min) that connected to the channel #1 outlet (top). Then replaced the cell suspension with FBS-free medium and incubated for 30 minutes. The FBS-free medium flowed into the middle channel, the top channel (first outer channel) #1 was filled with medium containing 10% FBS, and the bottom channel (second outer channel) […] was filled with FBS-free medium containing FMLP (200 ng/mL). The flow rates for 3 channels were 0.1 μL/min. The cells were incubated at 37° C. for 24 hours.
The blood sample was drawn from multiple healthy donors in compliance with the applicable federal, state, and institutional policies and procedures in the United States. Healthy human blood samples were obtained from the Clinical and Translational Research Unit of the University of Georgia with informed consent according to an IRB-approved protocol. The collected blood samples were stored in vacutainer K2-EDTA (BD, Franklin Lakes, N.J.). Complete blood count (CBC) reported was obtained to determine the number & subtypes of WBCs. The blood processing with iFCS was discussed in our previous work (Zhao, et al., Lab on a Chip 2019, 19 (10), 1860-76, incorporated by reference above).^10
(§2) To retrieve the cancer cells of heterogeneously migratory properties with low WBCs contamination, the cell loading channel and “chemos” loading channel (middle, #9) were swapped: cells was loaded to the top part of the middle channel (#9) while the serum was loaded into side channels (top/bottom, #1). […]

[2] = test system: MDA-MB-231 cancer cells; test: MChip purification assay, cells loaded in middle channel, cancer cell readout; format: cell-based; conditions: FMLP vs control; FIG. 14
Description: as §1, §2

[3] = test system: MDA-MB-231 breast cancer cell line; test: MChip cancer cell migration assay, cells loaded in channel #1; format: cell-based
Description: The microfluidic device was pre-filled with FBS-free cell culture medium and incubated at 37° C. for 1 hour. All of the channel inlet/outlet, except cell loading inlets (top/bottom channel #1) and middle channel outlet, are sealed with tape before cell loading. Cancer cells were collected from culture plates with 0.25% Trypsin-EDTA (ThermoFisher, Waltham, Mass.) and pelleted by centrifugation at 500 g for 5 minutes. Then, the cells were re-suspended in FBS-free culture medium, DMEM or RPMI (ThermoFisher, Waltham, Mass.), to a concentration of 5×10^5 cells/mL. 50 μL of cell suspension was pipetted into the cell loading channels. One syringe pump (Chemyx, Stafford, Tex.) was connected to the middle channel outlet and the flow rate was 5 μL/min. When all entrances of migration channels were filled with cancer cells, the pump was stopped and the cell suspension was replaced with FBS-free cell culture medium. The device was then placed in the incubator (37° C., 5% CO2) for 40 min to ensure the cell adhesion to the glass slide. Then, the tape/covers were removed from the cell loading outlet and middle inlet, and these inlets were connected with syringe pumps. The FBS-free medium flowed into the cell loading channel while the middle channel was filled with medium containing 10% FBS. The flow rates for 3 channels were 0.1 μL/min. The entire chip was placed in the cell culture incubator (37° C., 5% CO2) for about 24 hours. […]
Since migration time^14, 21 and FBS concentration were key parameters that determined the final position of individual cells, a series experiment were conducted to test the influence of different FBS concentrations (0%, 5%, and 10%) and various working time (6 hr, 12 hr, and 24 hr). […] It is noteworthy that cell migratory behaviors were also determined by the glass coating method, for example, coating using different concentrations of collagen and poly-L-Lysine (FIG. 7). […]

[4] = test system: WBCs; test: MChip WBC migration assay, cells loaded in channel #1; format: cell-based, human
Description: FIGS. 6A-6H illustrate purification of circulating tumor cells isolated from human blood using iFCS separation and an embodiment of a device of the present disclosure. FIG. 6A is images validation of combination effect of using iFCS and a device of the present disclosure with cultured cancer cells spiked into healthy blood. Left, an iFCS device was used to recover more than 99.2% spiked cancer cells and deplete many WBCs (˜500 cells per mL). Collected cancer cells and WBCs were injected into the “MChip” of the present disclosure to further purify CTC by removing most remaining WBCs based on different migratory abilities, as shown in the right image. Migratory cancer cells could be retrieved with high purity. FIG. 6B is a graph comparing migratory abilities for cells before and after iFCS processing. […] FIG. 6C illustrates WBC (n=-5000, channel #1 loading) migration assays under control (FBS only), WBC chemo-attractant (FM LP) and WBC chemo-repellent (Slit2). FBS (10%) or Slit2 (5 μg/mL) were loaded into the middle channel (channel #9), while FMLP (200 ng/mL) were filled in the […]. Only the WBCs of >200 μm Y position were counted. […] Right, images of WBCs 24-hour migration assay using Slit2 (5 μg/mL) in 10% FBS. Flow rate v=0.1 μL/min. WBCs were stained with cell tracker red. Fluorescence images were taken at 0 hour and 24 hours. Circles indicate the migratory WBCs. FIG. 6D is a graph illustrating breast cancer cells, MDA-MB-231, loaded into channel #1 with Slit2 (5 μg/mL) in 10% FBS in the middle channel. Flow rate v=0.1 μL/min. The graph indicates positions of MDA-MB-231 and the rectangular symbols indicate the mean value. FIG. 6E is an image of WBCs (red) and MDA-MB-231 (green) mixture (1:1) migration assay with middle channel (channel #9) filled with 10% FBS and Slit2 (5 μg/mL). At 24 hours, most of the migratory cancer cells moved into the migration/collection channels with ˜2 WBCs contamination. FIG. 6F illustrates a WBC migration assay using FBS, FMLP, and Slit2. WBCs (n=˜2500) loaded into the top edge of the middle channel. […]

[5] = 1:1 mixture, 10% FBS top channel, 0% FBS middle, 0% FBS + FMLP (200 ng/mL) bottom, 24 hours

## fMet-Leu-Phe [FMLP]
[1]; [5]
  WBCs moved to the bottom part: 88.3%
  WBCs stayed in the middle loading channel: 11.2%
[1]; FMLP in bottom side channel, WBCs loaded at top edge of middle channel, FIG. 6F
  effect on WBC migration direction: attract the majority of WBCs to the bottom part; also recorded: significant performance in inducing cells toward the bottom channel
[2]
  effect on MDA-MB-231 migration: without a negative effect

## collagen
[3]; collagen vs poly-L-Lysine coating at different concentrations, FIG. 7
  average migration distance by glass coating method: largest

B1: slit2: Slit guidance ligand 2, chemo-repellent for WBCs, neutrophil inhibitor (protein, UniProt O94813 31-1529, looked up)
Slit homolog 2 protein: QCSCSGSTVDCHGLALRSVPRNIPRNTERLDLNGNNITRITKTDFAGLRHLRVLQLMENKISTIERGAFQDLKELERLRLNRNHLQLFPELLFLGTAKLYRLDLSENQIQAIPRKAFRGAVDIKNLQLDYNQISCIEDGAFRALRDLEVLTLNNNNITRLSVASFNHMPKLRTFRLHSNNLYCDCHLAWLSDWLRQRPRVGLYTQCMGPSHLRGHNVAEVQKREFVCSGHQSFMAPSCSVLHCPAACTCSNNIVDCRGKGLTEIPTNLPETITEIRLEQNTIKVIPPGAFSPYKKLRRIDLSNNQISELAPDAFQGLRSLNSLVLYGNKITELPKSLFEGLFSLQLLLLNANKINCLRVDAFQDLHNLNLLSLYDNKLQTIAKGTFSPLRAIQTMHLAQNPFICDCHLKWLADYLHTNPIETSGARCTSPRRLANKRIGQIKSKKFRCSAKEQYFIPGTEDYRSKLSGDCFADLACPEKCRCEGTTVDCSNQKLNKIPEHIPQYTAELRLNNNEFTVLEATGIFKKLPQLRKINFSNNKITDIEEGAFEGASGVNEILLTSNRLENVQHKMFKGLESLKTLMLRSNRITCVGNDSFIGLSSVRLLSLYDNQITTVAPGAFDTLHSLSTLNLLANPFNCNCYLAWLGEWLRKKRIVTGNPRCQKPYFLKEIPIQDVAIQDFTCDDGNDDNSCSPLSRCPTECTCLDTVVRCSNKGLKVLPKGIPRDVTELYLDGNQFTLVPKELSNYKHLTLIDLSNNRISTLSNQSFSNMTQLLTLILSYNRLRCIPPRTFDGLKSLRLLSLHGNDISVVPEGAFNDLSALSHLAIGANPLYCDCNMQWLSDWVKSEYKEPGIARCAGPGEMADKLLLTTPSKKFTCQGPVDVNILAKCNPCLSNPCKNDGTCNSDPVDFYRCTCPYGFKGQDCDVPIHACISNPCKHGGTCHLKEGEEDGFWCICADGFEGENCEVNVDDCEDNDCENNSTCVDGINNYTCLCPPEYTGELCEEKLDFCAQDLNPCQHDSKCILTPKGFKCDCTPGYVGEHCDIDFDDCQDNKCKNGAHCTDAVNGYTCICPEGYSGLFCEFSPPMVLPRTSPCDNFDCQNGAQCIVRINEPICQCLPGYQGEKCEKLVSVNFINKESYLQIPSAKVRPQTNITLQIATDEDSGILLYKGDKDHIAVELYRGRVRASYDTGSHPASAIYSVETINDGNFHIVELLALDQSLSLSVDGGNPKIITNLSKQSTLNFDSPLYVGGMPGKSNVASLRQAPGQNGTSFHGCIRNLYINSELQDFQKVPMQTGILPGCEPCHKKVCAHGTCQPSSQAGFTCECQEGWMGPLCDQRTNDPCLGNKCVHGTCLPINAFSYSCKCLEGHGGVLCDEEEDLFNPCQAIKCKHGKCRLSGLGQPYCECSSGYTGDSCDREISCRGERIRDYYQKQQGYAACQTTKKVSRLECRGGCAGGQCCGPLRSKRRKYSFECTDGSSFVDEVEKVVKCGCTRCVS
[4]; WBCs and MDA-MB-231 mixture (1:1), middle channel 10% FBS and Slit2 (5 μg/mL), 24 hours
  WBCs contamination in migration/collection channels: ~2 WBCs
[4]; middle channel 10% FBS and 5 μg/mL slit2
  loaded WBCs remaining in the loading channel with non-migratory cells: 99.6%
[4]; middle channel loaded with 10% FBS and 5 μg/mL slit2, 24 hours, 0.1 μL/min
  WBCs that left the cell loading channel (#1): 0.4%
[3]; 5 μg/mL slit2 in 10% FBS in middle channel, 0.1 μL/min
  cancer cells squeezed into the migration channel: 85%
[3]; 5 μg/mL slit2 in 10% FBS in middle channel, P=0.004
  effect on migratory behavior of MDA-MB-231 cancer cells: slightly compromise
